Among the data in ChEMBL document CHEMBL2331557, “Antidepressant abietane diterpenoids from Chinese eaglewood” (J Nat Prod, 2013) are inhibition and IC50 values, retold here.

A word on the inhibition: it is how much of the control response was suppressed. For orientation: pIC50 means the IC50 on a negative log10 scale, so that one unit is a factor of ten. A low value points to a large IC50.

pIC50: −log10 of the molar value.

Sequence of Sodium-dependent serotonin transporter (P31652 whole entry): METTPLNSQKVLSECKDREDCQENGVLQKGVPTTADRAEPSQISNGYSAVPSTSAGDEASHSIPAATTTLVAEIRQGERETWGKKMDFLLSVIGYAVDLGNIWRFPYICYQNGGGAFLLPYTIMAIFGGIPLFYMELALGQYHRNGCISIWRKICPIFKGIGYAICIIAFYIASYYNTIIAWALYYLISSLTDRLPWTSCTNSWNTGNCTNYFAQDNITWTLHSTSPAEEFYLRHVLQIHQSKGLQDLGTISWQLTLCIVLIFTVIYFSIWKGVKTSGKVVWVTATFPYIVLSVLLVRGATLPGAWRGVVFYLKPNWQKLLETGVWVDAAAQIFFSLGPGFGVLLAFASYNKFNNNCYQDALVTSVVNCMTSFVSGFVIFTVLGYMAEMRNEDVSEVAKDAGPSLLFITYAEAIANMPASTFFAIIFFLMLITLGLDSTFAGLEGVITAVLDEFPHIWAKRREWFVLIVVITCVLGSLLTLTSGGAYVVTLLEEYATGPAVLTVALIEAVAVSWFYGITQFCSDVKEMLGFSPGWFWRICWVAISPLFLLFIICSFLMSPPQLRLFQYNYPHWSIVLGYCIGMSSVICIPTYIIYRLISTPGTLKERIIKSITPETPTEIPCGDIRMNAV

The species entered for one experiment is Rattus norvegicus. As to the kind of experiment: Inhibition of [3H]NE reuptake at NET in rat brain synaptosomes at 10 uM. It is filed as subcellular.
On to `C[C@]12CCC[C@@](C)(C(=O)O)[C@@H]1CC(=O)C1CC(=O)CC[C@@H]12` (some centres undefined), for which the inhibition was 18.9%. Same read-out and setting: with `CC(C)(O)[C@]1(O)CCC2=C(C(=O)C[C@H]3[C@](C)(C(=O)O)CCC[C@]23C)[C@H]1O` the figure was 0%.

Consider `CCO[C@H]1C[C@H]2C(=CC[C@@H]3[C@]2(C)CCC[C@@]3(C)C(=O)O)C=C1C(C)C`, for which the inhibition was 13.4%. Same read-out and setting: with `CC(C)[C@@]1(O)C=C2[C@H](O)C[C@@H]3[C@](C)(CCC[C@@]3(C)C(=O)O)[C@H]2C[C@@H]1O` [AQUILARABIETIC ACID B] the figure was 39.1%; with `C=C(C)c1ccc2c(c1)[C@H](O)C[C@H]1[C@](C)(C(=O)O)CCC[C@]21C`, 73.8%; with `CC(C)[C@@]12C=C3[C@H](O)C[C@@H]4[C@](C)(CCC[C@@]4(C)C(=O)O)[C@H]3C[C@@H]1OC(C)(C)O2`, 37.6%. The same measure, in the same setting: in the case of `COC(C)(C)c1ccc2c(c1)[C@H](O)C[C@H]1[C@](C)(C(=O)O)CCC[C@]21C` it was 70.4%. As to `CC(C)[C@]1(O)CC[C@H]2C(=C[C@H](O)[C@@H]3[C@]2(C)CCC[C@@]3(C)C(=O)O)[C@H]1O`, the inhibition came to 37.2%. Compound `CC(C)[C@@]1(O)C=C2[C@H](O)C[C@H]3[C@](C)(C(=O)O)CCC[C@]3(C)[C@@]2(O)CC1` [AQUILARABIETIC ACID A] gave an inhibition of 81.8%. The same measure, in the same setting: in the case of `CC(C)[C@]1(O)C=C2[C@H](O)C[C@@H]3[C@](C)(CCC[C@@]3(C)C(=O)O)[C@H]2C[C@H]1O` it was 34.4%; in that of `CNCC[C@H](Oc1cccc2ccccc12)c1cccs1`, 81.4%; in that of `CC(C)[C@@]12CC[C@H]3C(=C[C@@H]4OC(=O)[C@]5(C)CCC[C@@]3(C)[C@@H]45)[C@@H]1O2`, 8.1%.

A further experiment addresses Sodium-dependent serotonin transporter (Rattus norvegicus, UniProt P31652). As to the kind of experiment: Inhibition of [3H]5-HT reuptake at SERT in rat brain synaptosomes. It is filed as subcellular.
Regarding `CC(C)[C@@]1(O)C=C2[C@H](O)C[C@@H]3[C@](C)(CCC[C@@]3(C)C(=O)O)[C@H]2C[C@@H]1O` [AQUILARABIETIC ACID B], the pIC50 was 5.49.

Test system in the next experiment: not listed separately
As to the kind of experiment: Inhibition of [3H]NE reuptake at NET in rat brain synaptosomes. It is filed as subcellular.
Consider `CC(C)[C@@]1(O)C=C2[C@H](O)C[C@H]3[C@](C)(C(=O)O)CCC[C@]3(C)[C@@]2(O)CC1` [AQUILARABIETIC ACID A], for which the pIC50 is 6.04.
